Reference: PubChem BioAssay AID248 (DTP/NCI, 2004)
Several values for one entry are separate records, joined by “and”; a condition that tells them apart may be missing. Equal values may be shown once. Toxic doses and inconclusive results are not listed. Rule as the data show it: active = T/C of 150% or more; inactive = T/C below 125%.

Tested on: L1210 leukemia ip in BDF1 mice, survival T/C
Assay: NCI In Vivo Anticancer Drug Screen. Data for tumor model L1210 Leukemia (intraperitoneal) in B6D2F1 (BDF1) mice
Conditions: endpoint: mean survival time, higher = longer survival
Outline: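 Transplanted-tumor mice were given test agent; controls received vehicle only. Survival readings from the two groups were divided (treated over control).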

[1] = dose: 100.0 mg/kg/injection, schedule: Q01DX001 (ip), vehicle: carboxymethylcellulose (CMC)
[2] = dose: 200.0 mg/kg/injection, schedule: Q01DX001 (ip), vehicle: carboxymethylcellulose (CMC)
[3] = dose: 400.0 mg/kg/injection, schedule: Q01DX001 (ip), vehicle: carboxymethylcellulose (CMC)
[4] = dose: 50.0 mg/kg/injection, schedule: Q01DX009 (ip), vehicle: saline with Tween-80
[5] = dose: 100.0 mg/kg/injection, schedule: Q01DX009 (ip), vehicle: saline with Tween-80
[6] = dose: 200.0 mg/kg/injection, schedule: Q01DX009 (ip), vehicle: saline with Tween-80
[7] = dose: 100.0 mg/kg/injection, schedule: Q01DX009 (ip), vehicle: Klucel (hydroxypropylcellulose) (HPC)
[8] = dose: 200.0 mg/kg/injection, schedule: Q01DX009 (ip), vehicle: Klucel (hydroxypropylcellulose) (HPC)
[9] = dose: 100.0 mg/kg/injection, schedule: Q04DX002 (ip), vehicle: saline with Tween-80
[10] = dose: 200.0 mg/kg/injection, schedule: Q04DX002 (ip), vehicle: saline with Tween-80
[11] = dose: 100.0 mg/kg/injection, schedule: Q04DX003 (ip), vehicle: saline
[12] = dose: 200.0 mg/kg/injection, schedule: Q04DX003 (ip), vehicle: saline
[13] = dose: 400.0 mg/kg/injection, schedule: Q04DX003 (ip), vehicle: saline

Measured: T/C

CC[C@H](CC[C@@H](C)[C@H]1CC[C@H]2[C@@H]3CC[C@H]4C[C@@H](O)CC[C@]4(C)[C@H]3CC[C@]12C)C(C)C
inactive: dose: 100.0 mg/kg/injection, schedule: Q01DX001 (ip), vehicle: water 90 % of control | dose: 200.0 mg/kg/injection, schedule: Q01DX001 (ip), vehicle: water 91 % of control | dose: 400.0 mg/kg/injection, schedule: Q01DX001 (ip), vehicle: water 93 % of control

O=C(O)C(O)C1CCCCC1 (centres undefined)
inactive: [1] 91 % of control | [2] 104 % of control | [3] 94 % of control

O=C1NC(=O)C2(CCN(CC3COc4ccccc4O3)CC2)C(=O)N1 (centres undefined)
inactive: dose: 100.0 mg/kg/injection, schedule: Q04DX003 (ip), vehicle: Klucel (hydroxypropylcellulose) (HPC) 97 % of control | dose: 200.0 mg/kg/injection, schedule: Q04DX003 (ip), vehicle: Klucel (hydroxypropylcellulose) (HPC) 103 % of control | dose: 400.0 mg/kg/injection, schedule: Q04DX003 (ip), vehicle: Klucel (hydroxypropylcellulose) (HPC) 109 % of control

O=C(c1ccccc1)c1ccsc1C(=O)c1ccccc1
inactive: [4] 89 % of control | [5] 86 % of control | [6] 89 % of control

CNC(COC(=O)c1ccc(N)cc1)C1CCCCC1 (centres undefined)
inactive: dose: 75.0 mg/kg/injection, schedule: Q01DX001 (ip), vehicle: saline 97 % of control

O=C(c1cccc(F)c1)C(F)(F)F
inactive: [7] 96 % of control | [8] 104 % of control | dose: 300.0 mg/kg/injection, schedule: Q01DX009 (ip), vehicle: Klucel (hydroxypropylcellulose) (HPC) 93 % of control

Nc1ccc(C(=O)O)cc1S(=O)(=O)O
inactive: dose: 100.0 mg/kg/injection, schedule: Q01DX001 (ip), vehicle: Klucel (hydroxypropylcellulose) (HPC) 102 % of control

COCCOC(C)C(=O)C(O)S(=O)(=O)O (centres undefined)
inactive: dose: 500.0 mg/kg/injection, schedule: Q01DX Z (oral), vehicle: saline 86 % of control | dose: 1000.0 mg/kg/injection, schedule: Q01DX Z (oral), vehicle: saline 87 % of control

O=C(Nc1ccc(Cl)cc1)C(c1ccccc1)c1ccccc1
inactive: [9] 100 % of control | [10] 110 % of control | dose: 400.0 mg/kg/injection, schedule: Q04DX002 (ip), vehicle: saline with Tween-80 100 % of control

CC(=O)OC(C[N+](=O)[O-])C(Cl)(Cl)Cl (centres undefined)
inactive: dose: 6.25 mg/kg/injection, schedule: Q01DX009 (ip), vehicle: saline sonified 107 % of control | dose: 12.5 mg/kg/injection, schedule: Q01DX009 (ip), vehicle: saline sonified 107 % of control | dose: 12.5 mg/kg/injection, schedule: Q04DX003 (ip), vehicle: Klucel (hydroxypropylcellulose) (HPC) 97 % of control | dose: 25.0 mg/kg/injection, schedule: Q01DX009 (ip), vehicle: saline sonified 106 % of control | dose: 25.0 mg/kg/injection, schedule: Q04DX003 (ip), vehicle: Klucel (hydroxypropylcellulose) (HPC) 103 % of control

CCOC(=O)N1CCN(C(=S)[S-])CC1.CCOC(=O)N1CCN(C(=S)[S-])CC1.[Zn]
inactive: dose: 150.0 mg/kg/injection, schedule: Q01DX001 (ip), vehicle: saline 86 % of control | dose: 300.0 mg/kg/injection, schedule: Q01DX001 (ip), vehicle: saline 87 % of control

CCCCC(SC(CC)(C(C)=O)c1ccccc1)C(N)=O (centres undefined)
inactive: [1] 102 % of control | [2] 113 % of control | [3] 96 % of control

COc1cc(OC(C)=O)c(OC(C)=O)cc1OC(C)=O
inactive: [5] 98 % of control | [6] 96 % of control | dose: 400.0 mg/kg/injection, schedule: Q01DX009 (ip), vehicle: saline with Tween-80 100 % of control

Cc1noc(C)c1CC1(c2ccccc2)CCCCC1=O (centres undefined)
inactive: [7] 93 % of control | [8] 95 % of control | dose: 400.0 mg/kg/injection, schedule: Q01DX009 (ip), vehicle: Klucel (hydroxypropylcellulose) (HPC) 93 % of control

CCOC1CC2CN(C)C1c1ccccc12 (centres undefined)
inactive: [11] 97 % of control | [12] 97 % of control | [13] 101 % of control

O=S(=O)(O)c1ccc(-c2c3nc(c(-c4ccc(S(=O)(=O)O)cc4)c4ccc([nH]4)c(-c4ccc(S(=O)(=O)O)cc4)c4nc(c(-c5ccc(S(=O)(=O)O)cc5)c5ccc2[nH]5)C=C4)C=C3)cc1
inactive: dose: 12.5 mg/kg/injection, schedule: Q01DX009 (ip), vehicle: saline with Tween-80 90 % of control | dose: 25.0 mg/kg/injection, schedule: Q01DX009 (ip), vehicle: saline with Tween-80 90 % of control | [4] 98 % of control | [5] 88 % of control

O=C1CC(N2CCCCC2)C(=O)N1c1ccccc1 (centres undefined)
inactive: [9] 92 % of control | [10] 95 % of control

COC(=O)CC(O)C(=O)OC (centres undefined)
inactive: dose: 100.0 mg/kg/injection, schedule: Q01DX009 (ip), vehicle: saline 102 % of control | [11] 109 % of control | dose: 200.0 mg/kg/injection, schedule: Q01DX009 (ip), vehicle: saline 93 % of control | [12] 104 % of control | dose: 400.0 mg/kg/injection, schedule: Q01DX009 (ip), vehicle: saline 96 % of control | [13] 110 % of control

O=[N+]([O-])c1ccc(OCCC[P+](c2ccccc2)(c2ccccc2)c2ccccc2)c(Cl)c1
inactive: dose: 3.12 mg/kg/injection, schedule: Q01DX009 (ip), vehicle: saline 98 % of control | dose: 6.25 mg/kg/injection, schedule: Q01DX009 (ip), vehicle: saline 95 % of control | dose: 6.25 mg/kg/injection, schedule: Q04DX003 (ip), vehicle: saline 94 % of control | dose: 12.5 mg/kg/injection, schedule: Q01DX009 (ip), vehicle: saline 86 % of control and 87 % of control | dose: 12.5 mg/kg/injection, schedule: Q04DX003 (ip), vehicle: saline 92 % of control | dose: 25.0 mg/kg/injection, schedule: Q04DX003 (ip), vehicle: saline 90 % of control

C=CCOC(=O)C(F)(F)F
inactive: dose: 100.0 mg/kg/injection, schedule: Q04DX002 (ip), vehicle: saline 89 % of control | dose: 200.0 mg/kg/injection, schedule: Q04DX002 (ip), vehicle: saline 86 % of control

CCCCc1ccc(C(=O)O)nc1.[Cu+2]
inactive: dose: 5.0 mg/kg/injection, schedule: Q01DX001 (ip), vehicle: saline 97 % of control | dose: 10.0 mg/kg/injection, schedule: Q01DX001 (ip), vehicle: saline 105 % of control | dose: 20.0 mg/kg/injection, schedule: Q01DX001 (ip), vehicle: saline 106 % of control
